Laboratory results from patent publication US7157491B2, “Aryl-carbaldehyde oxime derivatives and their use as estrogenic agents” (Wyeth, priority 2003, dated 2007).

Tests used:
[1] = molecular target: T1, human ERα (Homo sapiens, UniProt P03372); test: Competition with [3H]-17β-estradiol for binding to ERα ligand binding domain (E. coli lysate); details: 2 nM [3H]-17β-estradiol, 5-15 hours at room temperature; concentration that decreases total 17β-estradiol binding by 50%
T1 construct: made in house; host or cells: E. coli
T1 sequence (P03372 311-547 limits assumed): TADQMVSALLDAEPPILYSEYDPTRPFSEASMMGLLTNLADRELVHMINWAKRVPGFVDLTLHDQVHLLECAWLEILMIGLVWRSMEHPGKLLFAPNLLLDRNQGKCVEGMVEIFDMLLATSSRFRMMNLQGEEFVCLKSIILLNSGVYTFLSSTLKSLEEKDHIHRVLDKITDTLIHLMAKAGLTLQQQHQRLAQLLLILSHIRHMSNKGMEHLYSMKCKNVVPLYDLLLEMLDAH
Method: (§1) Representative examples of the invention were evaluated for their ability to compete with 17β-estradiol for both ERα and ERβ. This test procedure provides the methodology for one to determine whether a particular compound binds to the estrogen receptor (and is therefore “estrogenic”) and whether there is selectivity for ERα or ERβ. […] 17β-estradiol is included as a standard reference for comparison. The procedure used is briefly described below. A crude lysate of E. coli expressing the estrogen receptor ligand binding domains (D, E, & F) of human ERα or ERβ was prepared. Both receptors and compounds were diluted in 1× Dulbecco's PBS (DPBS) supplemented with 1 mM EDTA. Using a high binding masked microtiter plate, 100 uL of receptor (1 uG/well) was combined with 2 nM [^3H]-17β-estradiol and various concentrations of compound. After between 5 and 15 hours at room temperature, the plates were washed with DPBS/1 mM EDTA and bound radioactivity determined by liquid scintillation counting.

[2] = molecular target: T2, human ERβ (Homo sapiens, UniProt Q92731); test: Competition with [3H]-17β-estradiol for binding to ERβ ligand binding domain (E. coli lysate); details: 2 nM [3H]-17β-estradiol, 5-15 hours at room temperature; concentration that decreases total 17β-estradiol binding by 50%
T2 construct: made in house; host or cells: E. coli
Method: as §1

T2 sequence (Q92731 264-498 limits assumed): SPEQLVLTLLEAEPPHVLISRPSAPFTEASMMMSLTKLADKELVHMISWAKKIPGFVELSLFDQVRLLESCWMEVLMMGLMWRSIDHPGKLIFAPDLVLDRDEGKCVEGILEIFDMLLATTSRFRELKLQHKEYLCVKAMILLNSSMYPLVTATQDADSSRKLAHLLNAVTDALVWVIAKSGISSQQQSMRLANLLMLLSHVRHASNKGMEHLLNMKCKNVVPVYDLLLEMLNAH

SMILES	melting point	IC50 [1]	IC50 [2]
ON=Cc1ccc(-c2ccc(O)cc2)c2ccccc12 [Example 3, 4-(4-Hydroxyphenyl)-1-naphthaldehyde oxime]	200 to 200.5 °C		
ON=Cc1ccc(-c2ccc(O)c(F)c2)c2ccccc12 [Example 6, 4-(3-Fluoro-4-hydroxyphenyl)-naphthalene-1-carbaldehyde oxime]	187 to 188 °C		
ON=Cc1ccc(-c2ccc(O)cc2)c2ccsc12 [Example 12, 4-(4-Hydroxyphenyl)-1-benzothiophene-7-carbaldehyde oxime]	229.5 to 230.5 °C		
ON=Cc1ccc(-c2ccc(O)cc2)c2sccc12 [Example 19, 7-(4-Hydroxyphenyl)-1-benzothiophene-4-carbaldehyde oxime]	230 to 231 °C		

The remaining lines, values ahead:

melting point	IC50 [1]	IC50 [2]	SMILES
216 to 217 °C			ON=Cc1ccc(-c2ccc(O)cc2)c2occc12 [Example 25, 7-(4-Hydroxyphenyl)-1-benzofuran-4-carbaldehyde oxime]
219 to 220 °C			ON=Cc1ccc(-c2ccc(O)cc2)c2ccoc12 [Example 31, 4-(4-Hydroxyphenyl)-benzofuran-7-carbaldehyde oxime]
	3220 nM	326 nM	ON=Cc1cc(-c2ccc(O)cc2)cc2ccoc12 [Example 37, 5-(4-Hydroxyphenyl)-1-benzofuran-7-carbaldehyde oxime]
192 to 194 °C	> 5000 nM	2210 nM	ON=Cc1cc(-c2ccc(O)cc2)c2occc2c1 [Example 43, 7-(4-Hydroxyphenyl)-benzofuran-5-carbaldehyde oxime]
